Reference: patent publication US4224316A, “Synthetic peptides having pituitary growth hormone releasing activity” (Beckman Instruments, Inc., priority 1979, dated 1980)
Square brackets hold non-standard residues; d marks the D form. Peptide text beside a SMILES is read from it.

Test system: pituitaries removed from 20 day old female rats
Assay: In vitro growth hormone release study (incubated rat pituitaries, GH radioimmunoassay of the medium)
Type: cell-based
Settings: mean ± SEM, two pituitaries in 1 ml lactated Ringer's solution, 36° C., peptide added hourly for 2 hours
Procedure: Female rats of the CD-l strain were housed in a constant temperature room at 24° C. with 14 hours light and 10 hours darkness. The rats were fed Purina brand rat chow ab libitum.
All studies were started between 0800 and 1000 hours.
Pituitaries were removed from 20 day old female rats. Two pituitaries were incubated at 36° C. in 1 ml of lactated Ringer's solution in 10 ml polytetrafluoroethylene beakers in a Dubnoff Shaker (90 cycles/min.). The pituitaries were incubated a total of 4 hours (P1, P2, I3, and I4). After two successive one hour preincubation periods (P1, P2), the peptide was added to the incubation medium hourly for 2 hours (I3, I4).
This in vitro study was performed in triplicate and a standard radioimmunoassay of growth hormone present in the incubation medium was performed in duplicate. The hormonal activity was calculated as the difference (Δ) of growth hormone (GH) levels between I3, I4 and P2, i.e., (I3 -P2) and (I4 -P2). P values were calculated by Students' t test using six growth hormone values for each value recorded.
The growth hormone radioimmunoassay reagents were distributed by the National Institute of Arthritis and […] (NIAMDD) program. The growth hormone values were calculated in terms of nanograms (ng) of a rat standard with a growth hormone potency of 0.61 units/mg.

Structure (SMILES)	In vitro growth hormone release (ΔGH between I3, I4 and P2) (1μg peptide)	In vitro growth hormone release (ΔGH between I3, I4 and P2) (10μg peptide)	In vitro growth hormone release (ΔGH between I3, I4 and P2) (100μg peptide)
CSCC[C@H](NC(=O)[C@H](Cc1ccccc1)NC(=O)[C@@H](Cc1c[nH]c2ccccc12)NC(=O)[C@H](Cc1ccccc1)NC(=O)[C@H](N)Cc1ccccc1)C(N)=O [H2 N-D-Phe-Phe-D-Trp-Phe-Met-CONH2] (H-[dF]F[dW]FM-NH2)	130 ± 143 ng.increment.GH/ml incubation	955 ± 248 ng.increment.GH/ml incubation	1060 ± 469 ng.increment.GH/ml incubation
NCCCC[C@H](NC(=O)[C@H](Cc1ccccc1)NC(=O)[C@@H](Cc1ccccc1)NC(=O)[C@H](Cc1c[nH]c2ccccc12)NC(=O)[C@H](N)Cc1ccccc1)C(N)=O [H2 N-D-Phe-Trp-D-Phe-Phe-Lys-CONH2] (H-[dF]W[dF]FK-NH2)	-109 ± 101 ng.increment.GH/ml incubation	888 ± 120 ng.increment.GH/ml incubation	963 ± 96 ng.increment.GH/ml incubation
CSCC[C@H](NC(=O)[C@H](Cc1ccccc1)NC(=O)[C@@H](Cc1ccccc1)NC(=O)[C@H](Cc1c[nH]c2ccccc12)NC(=O)[C@H](N)Cc1ccccc1)C(N)=O [H2 N-D-Phe-Trp-D-Phe-Phe-Met-CONH2] (H-[dF]W[dF]FM-NH2)		1469 ± 153 ng.increment.GH/ml incubation	1483 ± 168 ng.increment.GH/ml incubation
